Converted amounts (≈) assume the structure as drawn.
System: P388
Experiment: Cytotoxicity against mouse P388 cells
Type: functional

Row | SMILES | Activity | EC50 (read-out: ED50 (the source's name))
1 | Nc1ncnc2c1ccn2[C@@H]1O[C@H](CO)[C@@H](O)[C@H]1O | Toxic | 
2 | NC1=Cc2nc3ccc(Br)cc3c3ccnc(c23)C1=O [PANTHERININE] |  | 4.5 µg/mL (≈ 13.8 µM)
